Assay results: patent US10155007B2, “Synthesis method for improved tenofovir disoproxil fumarate using ion-exchange resin and method for preparing oral dissolving film form using the same” (Firson, priority 2014, dated 2018)

Assay: Solubility of tenofovir in the aqueous neutralization solution
Format: physicochemical
Experimental: The present invention also relates to a method of adding a defined proportion of calcium hydride to magnesium butoxide that is a catalyst commonly used in the synthesis of DEPMPA from HPA to shorten the reaction time from 18 hours to 6 hours or less and cause the production of toluene calcium sulfonate to reduce highly deliquescent substances, and using an ion-exchange resin (Dowex 50W, sulfonic acid cation exchange resin) after neutralization with a counter-alkali solution in the dealcoholizing hydrolysis of the ester compound into tenofovir, thereby to reach a precise isoelectric point (pH 3.2) and further increase the synthesis yield of tenofovir. Generally, when the pH value is 2.5 to 3.5 in the neutralization, tenofovir (H2O, one-molecule crystal water) is dissolved in the aqueous solution at about 7 percent. When the neutralization is perfectly performed with the ion-exchange resin, the solubility of tenofovir can be reduced to 4 percent or below.

With `C[C@H](Cn1cnc2c(N)ncnc21)OCP(=O)(O)O` [tenofovir, (R)-9-[2-(phosphonomethoxy)propyl]adenine] as the molecule, how does the solubility of tenofovir (neutralization perfectly performed with the ion-exchange resin) read?
Its solubility of tenofovir is ≤ 4%.

And the “tenofovir dissolved in the aqueous solution” value (pH 2.5 to 3.5 in the neutralization, tenofovir H2O, one-molecule crystal water)?
Its value is “about 7%”.
